For series [1], the target named is FKBP12 (Homo sapiens, UniProt P62942). The series is described as follows: Ki Test Procedure: inhibition of peptidyl-prolyl isomerase (rotamase) activity, chymotrypsin-coupled assay. The conditions noted are these: Table E comments. In kind it is biochemical.
Experimental: The inhibition of the prolyl peptidyl cis-trans isomerase activity of FKBP may be measured as an indicator of this affinity.
The cis-trans isomerization of an alanine-proline bond in a model substrate, N-succinyl-Ala-Ala-Pro-Phe-p-nitroanilide, is monitored spectrophotometrically in a chymotrypsin-coupled assay, which releases para-nitroanilide from the trans form of the substrate. The inhibition of this reaction caused by the addition of different concentrations of inhibitor is determined, and the data is analyzed as a change in first-order rate constant as a function of inhibitor concentration to yield the apparent Ki values.
In a plastic cuvette are added 950 mL of ice cold assay buffer (25 mM HEPES, pH 7.8, 100 mM NaCl), 10 mL of FKBP (2.5 mM in 10 mM Tris-Cl pH 7.5, 100 mM NaCl, 1 mM dithiothreitol), 25 mL of chymotrypsin (50 mg/ml in 1 mM HCl) and 10 mL of test compound at various concentrations in dimethyl sulfoxide. The reaction is initiated by the addition of 5 mL of substrate (succinyl-Ala-Phe-Pro-Phe-para-nitroanilide, 5 mg/mL in 2.35 mM LiCl in trifluoroethanol).
The absorbance at 390 nm versus time is monitored for 90 seconds using a spectrophotometer and the rate constants are determined from the absorbance versus time data files.
Series [2] has as its system retinal ganglion cell axons. The series can be described thus: Protection of retinal ganglion cell axons from degeneration following optic nerve transection (Table E). In kind it is in vivo, rat. Conditions: 14 days after optic nerve transection; ± SEM. The text has this:
Efficacy of representative compounds from different immunophilin ligand series in protecting retinal ganglion cell axons from degeneration following optic nerve transection is set forth in Table E.

Series [3] in a line: Clearance (Table E comments). The series is classed as in vitro ADME.
Series [4] has as its system retinal ganglion cells and optic nerve axons. The series is described as follows: Optic nerve transection vision loss model, 14 or 28 day treatment, sacrifice at 90 days (Example 2, Table A). The conditions noted are these: for Proximal optic nerve myclin basic protein Density, % recovery: ± SEM, % areal coverage of optic nerve cross section. The series is classed as in vivo, Sprague Dawley rats. The text has this: All eyes and optic nerves stumps were removed.

Series [5] concerns retinal ganglion cells, optic nerve axons and myelin. The series is described as follows: Retinal ischemia (intraocular pressure above arterial blood pressure), examined 28 days later. In kind it is in vivo, adult rats. An excerpt: Retinal ganglion cells were retrogradely labeled in adult rats by bilateral injection of fluorogold in their lateral geniculate nuclei. Labeled ganglion cells in the normal rat retina appear as white profiles against the dark background (FIG. 1A). Complete retinal ischemia was produced by infusing normal saline solution into the retinal vitreous cavity of each eye until the intraocular pressure exceeded arterial blood pressure. 28 days after the ischemic episode extensive degeneration of retinal ganglion cell was evidenced by massive reduction in the density of fluorogold labeled cells (FIG. 1B).

The subject of series [6] is retinal ganglion cells. The series is described as follows: Optic nerve transection, 28 days treatment, sacrifice at 90 days (Example 13). The series is classed as in vivo, Sprague Dawley rats. The conditions noted are these: 10 mg/kg/day s.c. for 28 days, 90 days after transection. An excerpt:
Transection of the mammalian optic nerve results in a brief period of abortive regeneration, but the majority of axotomized neurons die and the axons from many persisting ganglion cells die back beyond the optic nerve head.

Series [7] is described as follows: Morris watermaze spatial learning and memory in aged rodents (Example 15). In kind it is in vivo, C57BL/6N-Nia mice. The conditions noted are these: aged impaired mice, 10 mg/kg daily, retention testing after 3 weeks of dosing. The text has this:
The Morris watermaze is widely used for assessing spatial memory formation and retention in experimental animals. The test depends on the animal's ability to utilize spatial visual information in order to locate a submerged escape platform in a water tank. It is important that the tank itself be as devoid of specific visual features as possible—thus, it is always circular in shape, the sides are kept smooth and in uniform dull colors, and the water is rendered opaque with nontoxic watercolor pigment or powdered milk. This is to ensure that the animal navigates only by the use of more distant visual cues, or by the use of intra-maze cues specifically provided by the experimenter. The animals' path, speed, and swim time are tracked with a ceiling camera for later computerized analysis. Over the course of several successive trials, spatial learning can therefore be defined as a drop of distance swum, or time elapsed, from placement in the tank until escape onto the invisible platform. The procedure involved using three-month old (young) and 18-19 month old male C57BL/6N-Nia (aged) mice which habituated to the well known and conventional Morris watermaze during a 4 trials/day, 3-4 day visible platform training phase. […] Swim Distances (cm) were analyzed in a 7×5 ANOVA including Groups and Blocks (1-5) as factors in the analysis, treating Blocks as a repeated measure.

For orientation: Ki means the dissociation constant of the complex between target and ligand, obtained from inhibition or displacement. Low readings indicate higher affinity, high ones lower affinity.

Molecules are shown by their SMILES.

Chain of FKBP12 (P62942 whole entry, species assumed): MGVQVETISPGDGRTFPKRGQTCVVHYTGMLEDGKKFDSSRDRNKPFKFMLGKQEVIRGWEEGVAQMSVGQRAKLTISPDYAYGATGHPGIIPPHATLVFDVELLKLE

Take `C=C(C(=O)N1CCCC[C@H]1C(=O)O)C(C)(C)CC` [G]: the Ki in series [1] is > 10 µM. In addition, in series [2], the “RT97 + RGC axon density 14 days after On transection (% ON axons rescued)” value is recorded as 34.0% ± 4.8% SEM.

As for `C=C(C(=O)N1CCC[C@H]1C(=O)O)C(C)(C)CC` [L], in series [1], the Ki is > 7.74 µM. In series [3], the Clearance worked out at 5.2 µL/min. The “RT97 + RGC axon density 14 days after On transection (% ON axons rescued)” value in series [2] was 7.8% ± 3.0% SEM.

On to `CCC(C)(C)C(=O)C(=O)N1CCC[C@H]1C(=O)OCCCc1cccnc1` [GPI 1046], for which, in series [4] (14 days treatment, 10 mg/kg/day sc, 90 days after transection, mean density ± SEM of Fluoro-gold labeled RGC in 400 μm × 400 μm gridfields), the “RGC Counts” value was 49 ± 5.3. The “Distal optic nerve shrinkage” value in series [4] (14 days treatment, cross sectional area compared to sham control) is 33% shrinkage. The “Distal optic nerve myclin basic protein Density, loss” value in series [4] (14 days treatment, cross sectional area multiplied by myelin density) came to 47% loss. Also, the figures for the “Proximal optic nerve myclin basic protein Density, % recovery” value in series [4] (14 days treatment) and in series [4] (28 days treatment) were 1.6 ± 3.0 SEM % recovery and 70 ± 6.3 SEM % recovery, respectively. For the same compound, the “density of large, medium and small caliber optic nerve axons” value in series [4] (28 day treatment) was “significant increase”. Further, in series [4] (28 days treatment, 90 days after transection, RT97 labeled axons in 200 μm × 200 μm region, mean ± SEM), the “ON Axon density” value is 1526 ± 120. For the same compound, in series [4] (28 days treatment, cross sectional area compared to sham control), the “Distal optic nerve, less shrinkage” value is given as 56% less shrinkage*. In series [5] (10 mg/kg s.c. 1 hour prior to ischemia and 10 mg/kg/day for the next four days, 28 days after ischemia), the “protection of retinal ganglion cells (fluorogold labeled) after retinal ischemia” value was “noticeable protection of a large proportion of the vulnerable ganglion cell population”. Also, in series [5] (28 days after 1 hour retinal ischemic episode), the “density of degenerating myelin figures after retinal ischemia” value is listed as “dramatically decreased the density of degenerating myelin figures”. Further, in series [5] (28 days after 1 hour retinal ischemic episode, toluidine blue staining), the “protection of optic nerve axons after retinal ischemia” value was “protected the majority of optic nerve axons from degeneration”. Moreover, the “ganglion cell population spared” value in series [6] was 25%. Further, the “preservation of axons in the proximal stump of the transected nerve” value in series [6] (RT97 neurofilament) is “preserved the axons of virtually all protected neurons”. The “spatial memory performance (Morris watermaze retention, swim distance)” value in series [7] is listed as “significantly enhanced spatial memory performance”.

In the case of `CCC(C)(C)C(=O)C(=O)N1CCC[C@H]1C(=O)SCCC(c1ccccc1)c1ccccc1` [M], the “RT97 + RGC axon density 14 days after On transection (% ON axons rescued)” value in series [2] is −6.3% ± 3.9% SEM.

In series [3], `CCC(C)(C)C(=O)C(=O)N1CCCCC1C(=O)OC(CCc1ccccc1)CCc1ccccc1` (centres unmarked) [E] gave a Clearance of 41.8 µL/min.

`C=C(C(=O)N1CCCC[C@H]1C(N)=O)C(C)(C)CC` [H]: in series [2], the “RT97 + RGC axon density 14 days after On transection (% ON axons rescued)” value is 30.3% ± 8.0% SEM.

Take `O=C(SCCCc1ccccc1)[C@@H]1CCCN1C(=O)NC12CC3CC(CC(C3)C1)C2` [B]: the “RT97 + RGC axon density 14 days after On transection (% ON axons rescued)” value in series [2] is 100.0% ± 5.2% SEM.

The values above are taken from patent publication US6376517B1, “Pipecolic acid derivatives for vision and memory disorders” (GPI NIL Holdings, Inc., priority 1998, dated 2002).
